Results: patent publication US4168316A, “Immunosuppressive-1-(thiocarbamoyl)-2-imidazolidinone” (Northwestern University, priority 1978, dated 1979)

How the values were obtained:
[1] = system: DNFB-induced ear swelling; experiment: ear swelling assay, delayed-type contact sensitivity to 2,4-dinitro-1-fluorobenzene (DNFB); format: in vivo, inbred mice (C57BL/6J; (C57BL/6J×DBA/2J) F1)
From the text: In further proof of the activity of the purified material from Example 3 as compared with niridazole per se, there was employed the ear swelling assay of Phanuphak et al. (1), which measures delayed-type contact sensitivity of inbred mice to 2,4-dinitro-1-fluorobenzene (DNFB). The assay was done according to the following protocol: on Day 1, groups of mice, matched for sex and weight, had their abdomens shaved and received varying doses of niridazole or NIF, the purified product of Example 2. The animals were sensitized on Day 3 with 20 μl of 0.5% (v/v) DNFB in acetone: olive oil (4:1, v/v) applied to the shaved abdomen. The sensitization procedure was repeated on Day 4. On Day 8, mice were lightly anesthetized with ether and the right ear thickness measured (10^-2 ×mm) by a modified dial thickness gauge. The right ear was then challenged with 10 μl of 0.5% DNFB solution. Twenty-four hours later, the mice were again anesthetized and the thickness of the right ear was measured to determine the immune response (swelling to the DNFB challenge).

[2] = system: inflammation related to delayed hypersensitivity; conditions: tests on experimental animals; cited from earlier work
[3] = system: delayed hypersensitivity-type reactions; conditions: cited from earlier work
[4] = system: granuloma formation around S. mansoni eggs; experiment: granuloma formation around S. mansoni eggs injected intravenously into the pulmonary microvasculature; format: in vivo, CF1 Swiss albino female mice; conditions: niridazole single oral dose 1 mg/kg, Day -1, p<0.005
Description: Groups of 5 weanling CF1 Swiss albino female mice (18-22 g body weight) obtained from Carworth Farms, Inc., New City, New York were treated by intravenous injection with different doses of urine fractions at varying time intervals before egg injection. Untreated mice and niridazole treated animals (1 mg/kg body weight given orally on the day before egg injection) were used as controls. […] Fifty granulomas containing eggs in their centers were measured from each experimental group and the significance of the difference was evaluated by the Student's t test.

## NC(=S)N1CCNC1=O [NIF, 1-(thiocarbamoyl)-2-imidazolidinone]
[1]; 10^-8 -10^-10 g/kg pure (NIF) urine extracts
  suppression of ear swelling: 50%
[1]; Exp. II, F1 mice, 1.2 × 10^-8 g/kg ip
  SUPPRESSION: 48 ± 7%
[1]; Exp. II, F1 mice, 1.2 × 10^-8 g/kg ip, n=5, control 30.9
  EAR SWELLING (± SEM): 16.0 ± 2.2 10^-2 × mm
[1]; Exp. II, F1 mice, 1.2 × 10^-10 g/kg ip
  SUPPRESSION: 46 ± 4%
[1]; Exp. II, F1 mice, 1.2 × 10^-10 g/kg ip, n=5, control 30.9
  EAR SWELLING (± SEM): 16.8 ± 1.2 10^-2 × mm
[1]; Exp. III, B6 mice, 1.6 × 10^-8 g/kg ip
  SUPPRESSION: 52 ± 14%
[1]; Exp. III, B6 mice, 1.6 × 10^-8 g/kg ip, n=4, control 36.2
  EAR SWELLING (± SEM): 17.5 ± 5.0 10^-2 × mm
[1]; Exp. III, B6 mice, 1.6 × 10^-8 g/kg iv
  SUPPRESSION: 25 ± 21%
[1]; Exp. III, B6 mice, 1.6 × 10^-8 g/kg iv, n=4, control 36.2
  EAR SWELLING (± SEM): 27.2 ± 7.7 10^-2 × mm
[1]; Exp. III, B6 mice, 1.6 × 10^-10 g/kg ip
  SUPPRESSION: 69 ± 13%
[1]; Exp. III, B6 mice, 1.6 × 10^-10 g/kg ip, n=4, control 36.2
  EAR SWELLING (± SEM): 11.4 ± 4.8 10^-2 × mm
[1]; Exp. III, B6 mice, 1.6 × 10^-10 g/kg iv
  SUPPRESSION: 45 ± 12%
[1]; Exp. III, B6 mice, 1.6 × 10^-10 g/kg iv, n=4, control 36.2
  EAR SWELLING (± SEM): 20.0 ± 4.3 10^-2 × mm
[1]; Exp. III, B6 mice, 1.6 × 10^-11 g/kg iv
  SUPPRESSION: 65 ± 9%
[1]; Exp. III, B6 mice, 1.6 × 10^-11 g/kg iv, n=4, control 36.2
  EAR SWELLING (± SEM): 12.8 ± 3.2 10^-2 × mm
[1]; Exp. III, B6 mice, 1.6 × 10^-12 g/kg iv
  SUPPRESSION: 88 ± 9%
[1]; Exp. III, B6 mice, 1.6 × 10^-12 g/kg iv, n=4, control 36.2
  EAR SWELLING (± SEM): 4.4 ± 3.2 10^-2 × mm
[1]; experiment III, extract dose 10^-12 g/kg
  ear swelling, in words: all but ablated
[1]; extract 10^-8 g/kg i.v.
  suppression at higher doses, in words: less suppression

## O=C1NCCN1c1ncc([N+](=O)[O-])s1 [niridazole, 1-(5-nitro-2-thiazolyl)-2-imidazolidinone, reference compound]
[2]
  effect on inflammation related to delayed hypersensitivity, in words: suppression of inflammation related to delayed hypersensitivity including retardation of allograft rejection
[3]; human studies by Webster et al
  suppression of delayed hypersensitivity-type reactions, in words: corroborated the suppression of delayed hypersensitivity-type reactions
[3]; patients undergoing prolonged treatment, Mahmoud et al
  effect on inflammations, in words: suppressed inflammations
[1]; 10^-3 to 10^-4 g/kg niridazole intraperitoneally
  suppression of ear swelling, in words: Significant suppression of ear swelling
[1]; Exp. I, F1 mice, niridazole dose 10^-2, ip
  SUPPRESSION: 37 ± 3%
[1]; Exp. I, F1 mice, niridazole dose 10^-2, ip, n=5, control 26.9
  EAR SWELLING (± SEM): 17.0 ± 0.9 10^-2 × mm
[1]; Exp. I, F1 mice, niridazole dose 10^-3, ip
  SUPPRESSION: 66 ± 4%
[1]; Exp. I, F1 mice, niridazole dose 10^-3, ip, n=5, control 26.9
  EAR SWELLING (± SEM): 9.1 ± 1.2 10^-2 × mm
[1]; niridazole 10 mg/kg
  suppression at higher doses, in words: less suppression
[4]; Table III experiment
  mean granuloma area: 11 ± 2.6 μ^2 × 10^3
[4]; Table IV experiment
  mean granuloma area: 8 ± 2.6 μ^2 × 10^3
